Results published in patent US6355640B1, “Pyrazolopyridine adenosine antagonists” (Fujisawa Pharmaceutical Co., Ltd., priority 1993, dated 2002).
Marks after values point to notes of the source that are not given here.

Tests used:
[1] = test system: cisplatin induced renal failure; assay: Test 1. Effect on Cisplatin-induced Renal Failure; type: in vivo; conditions: Male JCL:SD rats, cisplatin 4.5 mg/kg i.p. at the same time as first dose; test compound 0.1 mg/kg i.v. twice a day for 3 days; measured on the 8th day; mean; p < 0.01 vs control group
Method: (§1) Male JCL:SD strain rats aged 9 weeks weighing 280-300 g received cisplatin (4.5 mg/kg) intraperitoneally. Normal rats were injected with an equal amount of saline instead of cisplatin. The effect of repeated intravenous administration of the test compound (0.1 mg/kg, twice a day) on cisplatin induced renal failure was investigated in rats. Cisplatin was given at the same time of the first dose of the test compound (for the test group) or vehicle (saline) (for the control group), and the test compound or vehicle was given for 3 days. The plasma creatinine concentrations were measured in all rats on the 8th day.

[2] = test system: cisplatin induced renal failure; assay: Test 2. Effect on Cisplatin-induced Renal Failure; type: in vivo; conditions: Male JCL:SD rats, cisplatin 4.5 mg/kg i.p. 60 minutes after first dose; test compound 0.1 mg/kg i.v. twice a day for 8 days; measured on the 8th day; mean; P < 0.05 vs control group
Method: as §1, with “chronic” for “repeated”, “Cisplatin was given at the same time of the first dose of the test compound (for the test group) or vehicle (saline) (for the control group), and the test compound or vehicle was given for 3 days.” left out

Row | SMILES | melting point | also measured
1 | O=C(O)CC1=C(n2nc(-c3c(-c4ccccc4)nn4ccccc34)ccc2=O)CCCCC1 [Example 19, 3-[2-(2-carboxymethyl-1-cycloheptenyl)-3-oxo-2,3-dihydropyridazin-6-yl]-2-phenylpyrazolo[1,5-a]-pyridine] | – | serum creatinine [1]: 1.32** mg/dl
2 | O=C(O)CC1=C(n2nc(-c3c(-c4ccccc4)nn4ccccc34)ccc2=O)CCCC1 [Example 58, 3-[2-(2-carboxymethyl-1-cyclohexenyl)-3-oxo-2,3-dihydropyridazin-6-yl]-2-phenylpyrazolo[1,5-a]pyridine] | – | serum creatinine [2]: 1.10* mg/dl
3 | O=C1CCCCC1Oc1ccc(-c2c(-c3ccccc3)nn3ccccc23)nn1 (single isomer, unassigned) [Example 2 (less polar compound), 3-[3-(2-Oxocyclohexyl)oxypyridazin-6-yl]-2-phenylpyrazolo[1,5-a]pyridine] | 214 to 216 °C | –
4 | N#C/C=C1\CCCCC1n1nc(-c2c(-c3ccccc3)nn3ccccc23)ccc1=O (stereo not drawn) [Example 96 (E)-isomer, (E)-3-[2-{2-Cyanomethylenecyclohexyl}-3-oxo-2,3-dihydropyridazin-6-yl]-2-phenylpyrazolo[1,5-a]pyridine] | 174 to 175 °C | –
5 | O=C(O)CNC(=O)CC1=C(n2nc(-c3c(-c4ccccc4)nn4ccccc34)ccc2=O)CCCC1 [Example 55, 3-[2-{2-(N-Carboxymethylcarbamoyl)methyl-1-cyclohexenyl}-3-oxo-2,3-dihydropyridazin-6-yl]-2-phenylpyrazolo[1,5-a]pyridine] | 190 to 192 °C | –
6 | COC(=O)[C@H]1CC[C@@H](n2nc(-c3c(-c4ccccc4)nn4ccccc34)ccc2=O)[C@H](O)C1 (relative stereo) [Example 8, 3-[2-{(1R*,2R*,4S*)-2-Hydroxy-4-methoxycarbonyl-cyclohexyl}-3-oxo-2,3-dihydropyridazin-6-yl]-2-phenylpyrazolo[1,5-a]pyridine] | 169 to 172 °C | –
7 | CC(C)(C)OC(=O)/C=C1\CCCCC1n1nc(-c2c(-c3ccccc3)nn3ccccc23)ccc1=O (stereo not drawn) [Example 95(3), (E)-3-[2-{2-(tert-Butoxycarbonylmethylene)-cyclohexyl}-3-oxo-2,3-dihydropyridazin-6-yl]-2-phenylpyrazolo[1,5-a]pyridine] | 110 to 116 °C | –
8 | O=c1ccc(-c2c(-c3ccccc3)nn3ccccc23)nn1C1CCCC(O)C1 (stereo not drawn) [Example 104, 3-[2-(3-hydroxycyclohexyl)-3-oxo-2,3-dihydropyridazin-6-yl]-2-phenylpyrazolo[1,5-a]pyridine] | 117 to 118 °C | –
9 | CCOC(=O)C[C@H]1CCCC[C@H]1n1nc(-c2c(-c3ccccc3)nn3ccccc23)ccc1=O (relative stereo) [Example 33(2), cis-3-[2-(2-Ethoxycarbonylmethylcyclohexyl)-3-oxo-2,3-dihydropyridazin-6-yl]-2-phenylpyrazolo[1,5-a]pyridine] | 151 to 152 °C | –
10 | N#CC1CCCCC1n1nc(-c2c(-c3ccccc3)nn3ccccc23)ccc1=O (stereo not drawn) [Example 108, 3-[2-(2-cyanocyclohexyl)-3-oxo-2,3-dihydropyridazin-6-yl]-2-phenylpyrazolo[1,5-a]pyridine] | 214 °C | –
11 | O=C(O)C=C1CCC(n2nc(-c3c(-c4ccccc4)nn4ccccc34)ccc2=O)CC1 (stereo not drawn) [Example 51, 3-[2-(4-Carboxymethylenecyclohexyl)-3-oxo-2,3-dihydropyridazin-6-yl]-2-phenylpyrazolo[1,5-a]pyridine] | 188 to 190 °C | –
12 | O=C1OCCC1n1nc(-c2c(-c3ccccc3)nn3ccccc23)ccc1=O (stereo not drawn) [Example 25, 3-[2-(2-Oxo-2,3,4,5-tetrahydrofuran-3-yl)-3-oxo-2,3-dihydropyridazin-6-yl]-2-phenylpyrazolo[1,5-a]pyridine] | 179 to 180 °C | –
13 | O=C(O)CCCC1=C(n2nc(-c3c(-c4ccccc4)nn4ccccc34)ccc2=O)CCCC1 [Example 53, 3-[2-{2-(3-Carboxypropyl)-1-cyclohexenyl}-3-oxo-2,3-dihydropyridazin-6-yl]-2-phenylpyrazolo[1,5-a]pyridine] | 145 to 147 °C | –
14 | COc1ccc(-n2nc(-c3c(-c4ccccc4)nn4ccccc34)ccc2=O)cc1 [Example 100, 3-[2-(4-Methoxyphenyl)-3-oxo-2,3-dihydropyridazin-6-yl]-2-phenylpyrazolo[1,5-a]pyridine] | 158 °C | –
15 | COC(=O)C[C@H]1CC[C@H](n2nc(-c3c(-c4ccccc4)nn4ccccc34)ccc2=O)C1 (relative stereo) [Example 32, trans-3-[2-(3-Methoxycarbonylmethylcyclopentyl)-3-oxo-2,3-dihydropyridazin-6-yl]-2-phenylpyrazolo[1,5-a]-pyridine] | 105 to 107 °C | –
16 | O=C(CC1=C(n2nc(-c3c(-c4ccccc4)nn4ccccc34)ccc2=O)CCCC1)N1CCCC1 [Example 84, 3-[2-{2-(Pyrrolidin-1-ylcarbonyl)methyl-1-cyclohexenyl}-3-oxo-2,3-dihydropyridazin-6-yl]-2-phenylpyrazolo[1,5-a]pyridine] | 178 to 179 °C | –
17 | O=C1NCCCC1n1nc(-c2c(-c3ccccc3)nn3ccccc23)ccc1=O (stereo not drawn) [Example 26, 3-[2-(2-Oxopiperidin-3-yl)-3-oxo-2,3-dihydropyridazin-6-yl]-2-phenylpyrazolo[1,5-a]pyridine] | 140 to 145 °C (dec.) | –
18 | O=c1ccc(-c2c(-c3ccccc3)nn3ccccc23)nn1C1CCC2(CC1)OCCO2 [Example 21, 3-[2-(4,4-Ethylenedioxycyclohexyl)-3-oxo-2,3-dihydropyridazin-6-yl]-2-phenylpyrazolo[1,5-a]pyridine] | 189 to 190 °C | –
19 | C=C1CCCCC1n1nc(-c2c(-c3ccccc3)nn3ccccc23)ccc1=O (stereo not drawn) [Example 93, 3-[2-(2-methylenecyclohexyl)-3-oxo-2,3-dihydropyridazin-6-yl]-2-phenylpyrazolo[1,5-a]pyridine] | 229 to 230 °C (dec.) | –
20 | O=C1CCCC(n2nc(-c3c(-c4ccccc4)nn4ccccc34)ccc2=O)C1 (stereo not drawn) [Example 102, 3-[2-(3-oxocyclohexyl)-3-oxo-2,3-dihydropyridazin-6-yl]-2-phenylpyrazolo[1,5-a]pyridine] | 126 to 127 °C | –
21 | C[C@@]1(O)CCCC[C@H]1n1nc(-c2c(-c3ccccc3)nn3ccccc23)ccc1=O (relative stereo) [Example 35, 3-[2-{(1R*,2R*)-2-hydroxy-2-methylcyclohexyl}-3-oxo-2,3-dihydropyridazin-6-yl]-2-phenylpyrazolo[1,5-a]-pyridine] | 197 to 198 °C | –
